Laboratory results reported in ChEMBL document CHEMBL1909046, “DrugMatrix in vitro pharmacology data”.

Legend:
[1] = DRUGMATRIX: Phosphodiesterase PDE3 enzyme inhibition (substrate: [3H]cAMP + cAMP); assay type: tissue-based, Homo sapiens; details: platelet; Not Active = under 50% inhibition at 10 µM
[2] = DRUGMATRIX: Sigma2 radioligand binding (ligand: [3H] Ifenprodil); assay type: cell membranes, Rattus norvegicus, Wistar, Brain, Membrane; details: Not Active = under 50% inhibition at 10 µM
[3] = molecular target: T1, Alpha-2C adrenergic receptor (Homo sapiens, UniProt P18825); test: DRUGMATRIX: Adrenergic Alpha-2C radioligand binding (ligand: [3H] MK-912); assay type: cell membranes, Sf9, Membrane; details: sf9
T1 sequence (P18825 whole entry): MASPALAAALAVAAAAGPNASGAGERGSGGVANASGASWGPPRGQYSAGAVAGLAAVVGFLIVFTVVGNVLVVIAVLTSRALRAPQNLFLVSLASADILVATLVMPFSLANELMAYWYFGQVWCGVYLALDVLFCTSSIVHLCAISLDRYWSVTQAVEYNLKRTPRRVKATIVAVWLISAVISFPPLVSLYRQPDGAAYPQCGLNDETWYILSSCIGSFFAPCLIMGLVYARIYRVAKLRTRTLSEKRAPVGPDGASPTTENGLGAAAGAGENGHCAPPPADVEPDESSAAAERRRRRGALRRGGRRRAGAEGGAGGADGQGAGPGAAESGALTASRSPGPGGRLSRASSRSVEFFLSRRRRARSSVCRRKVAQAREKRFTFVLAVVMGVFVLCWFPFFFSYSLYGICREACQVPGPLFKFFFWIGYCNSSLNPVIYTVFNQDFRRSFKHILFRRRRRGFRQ

[4] = DRUGMATRIX: Phosphodiesterase PDE4 enzyme inhibition (substrate: [3H]cAMP + cAMP); details: u-937; Not Active = under 50% inhibition at 10 µM
[5] = molecular target: T2, Adenosine receptor A1 (Homo sapiens, UniProt P30542); assay type: cell membranes, CHO, Membrane; details: cho;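 note: radioligand binding assay at the adenosine A1 receptor, with DPCPX serving as the labelled ligand; in other assays of this panel Not Active means under 50% inhibition at 10 µM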
T2 sequence (P30542 whole entry): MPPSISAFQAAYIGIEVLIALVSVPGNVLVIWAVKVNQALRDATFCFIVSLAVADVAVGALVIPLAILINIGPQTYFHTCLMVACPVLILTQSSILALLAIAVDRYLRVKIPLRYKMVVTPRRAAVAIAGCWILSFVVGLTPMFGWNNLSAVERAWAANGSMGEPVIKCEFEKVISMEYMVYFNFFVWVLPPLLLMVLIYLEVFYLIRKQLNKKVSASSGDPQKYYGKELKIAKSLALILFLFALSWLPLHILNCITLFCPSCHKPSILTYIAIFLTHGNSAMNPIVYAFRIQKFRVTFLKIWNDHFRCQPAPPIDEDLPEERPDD

C[n+]1ccccc1/C=N/O.[Cl-] [PRALIDOXIME CHLORIDE]
Not Active: IC50 [1] | Ki [1] | IC50 [2] | Ki [2] | IC50 [3] | IC50 [4] | Ki [4] | IC50 [5]

C[C@]12C=CC(=O)C=C1CC[C@@H]1[C@@H]2[C@@H](O)C[C@@]2(C)[C@H]1CC[C@]2(O)C(=O)CO [PREDNISOLONE]
Not Active: IC50 [1] | Ki [1] | IC50 [2] | Ki [2] | IC50 [3] | IC50 [4] | Ki [4] | IC50 [5]

CC(=O)[C@H]1[C@H](C#N)C[C@H]2[C@@H]3CC=C4C[C@@H](O)CC[C@]4(C)[C@H]3CC[C@@]21C [PREGNENOLONE CARBONITRILE]
Not Active: IC50 [1] | Ki [1] | IC50 [2] | Ki [2] | IC50 [3] | IC50 [4] | Ki [4] | IC50 [5]

CCCN(CCC)S(=O)(=O)c1ccc(C(=O)O)cc1 [PROBENECID]
Not Active: IC50 [1] | Ki [1] | IC50 [2] | Ki [2] | IC50 [3] | IC50 [4] | Ki [4] | IC50 [5]

CCCNCC(O)COc1ccccc1C(=O)CCc1ccccc1 (configuration not stated) [PROPAFENONE]
Not Active: IC50 [1] | Ki [1] | IC50 [2] | Ki [2] | IC50 [3] | IC50 [4] | Ki [4] | IC50 [5]

CCCOc1ccc(C(=O)OCCN(CC)CC)cc1N [PROPARACAINE]
Not Active: IC50 [1] | Ki [1] | IC50 [2] | Ki [2] | IC50 [3] | IC50 [4] | Ki [4] | IC50 [5]

CC(C)c1cccc(C(C)C)c1O [PROPOFOL]
Not Active: IC50 [1] | Ki [1] | IC50 [2] | Ki [2] | IC50 [3] | IC50 [4] | Ki [4] | IC50 [5]

C[C@@H]1O[C@@H](O[C@@H]2C=C3CC[C@@H]4[C@H](CC[C@]5(C)[C@@H](c6ccc(=O)oc6)CC[C@]45O)[C@@]3(C)CC2)[C@H](O)[C@H](O)[C@H]1O [PROSCILLARIDIN]
Not Active: IC50 [1] | Ki [1] | IC50 [2] | Ki [2] | IC50 [3] | IC50 [4] | Ki [4] | IC50 [5]

Oc1cccc(O)c1O [PYROGALLOL]
Not Active: IC50 [1] | Ki [1] | IC50 [2] | Ki [2] | IC50 [3] | IC50 [4] | Ki [4] | IC50 [5]

AURANOFIN
Not Active: IC50 [1] | Ki [1] | IC50 [2] | Ki [2] | IC50 [3] | Ki [3] | IC50 [4] | Ki [4] | IC50 [5] | Ki [5]

GADOPENTETATE DIMEGLUMINE
Not Active: IC50 [1] | Ki [1] | IC50 [2] | Ki [2] | IC50 [3] | Ki [3] | IC50 [4] | Ki [4] | IC50 [5] | Ki [5]

GENTAMICIN
Not Active: IC50 [1] | Ki [1] | IC50 [2] | Ki [2] | IC50 [3] | Ki [3] | IC50 [4] | Ki [4] | IC50 [5] | Ki [5]

GRAMICIDIN
Not Active: IC50 [1] | Ki [1] | IC50 [2] | Ki [2] | IC50 [3] | Ki [3] | IC50 [4] | Ki [4] | IC50 [5] | Ki [5]

NYSTATIN
Not Active: IC50 [1] | Ki [1] | IC50 [2] | Ki [2] | IC50 [3] | Ki [3] | IC50 [4] | Ki [4] | IC50 [5] | Ki [5]
